Measurements reported in US20160375016A1, “METHODS FOR REDUCING ANXIETY AND IMPULSIVITY IN SUBJECTS INITIATING TREATMENT WITH SEROTONIN REUPTAKE INHIBITORS” (THE JOHNS HOPKINS UNIVERSITY, priority 2013, published 2016).
Read-outs that look alike come from different tables or passages of the source.

Columns and labels:
[1] = tested on: C57BL/6 mice; assay: Elevated plus maze after acute drug administration; assay type: in vivo, mouse; details: for anxiety in the elevated plus maze compared to Control mice: FIG. 1A legend, result in words; for time spent in the open arm of the elevated plus maze: reboxetine specificity experiment, FIG. 1D, saline 12.3±3.2, n=8 mice per group
Method: Animals and Housing. 7-8 week old male C57BL/6 mice were obtained from the National Cancer Institute (Frederick, Md.) and housed in the Broadway Research Building Johns Hopkins animal facility. Housing and behavioral testing rooms were temperature controlled with a 12 h light/dark cycle, and all behavioral tests were conducted during the light cycle. Animal protocols were approved by the Johns Hopkins University School of Medicine Animal Care and Use Committee.
Drug administration. […]
Elevated Plus Maze. Mice (n=10) were tested on the elevated plus maze in an isolated behavior suite. Mice were placed in the center of the maze and given 5 minutes to freely explore the maze. Time spent in open and closed arms of the maze were tracked using ANY-maze software (Stoelting, Wood Dale, Ill.).
Statistical Analyses. Statistical analyses were completed using GraphPad Prism 5.0 (La Jolla, Calif.). Comparisons between groups in the animal studies were made with one-way ANOVA, and P values <0.05 were considered statistically significant. The Johns Hopkins Institute for Clinical and Translational Research Biostatistics Center provided statistical support.

[2] = cited from earlier work
[3] = assumed from literature for one-compartment model

COc1ccccc1N1CCN(CCN(C(=O)C2CCCCC2)c2ccccn2)CC1 [WAY-100635]
anxiety in the elevated plus maze compared to Control mice [1]: no effect
reversal of anxiety when co-administered with the SNRI reboxetine ([1]; FIG. 1D legend): does not reverse anxiety
reversal of anxiety when coadministered with the SSRI fluoxetine ([1]; FIG. 1D legend): reverses anxiety
time spent in the open arms of the elevated plus maze ([1]; acute treatment 40 minutes before testing, fluoxetine 20 mg/kg, WAY-100635 0.3 mg/kg, FIG. 1A, Control 20.03±10.12): 20.82 ± 15.18 s

CN(C)CCCC1(c2ccc(F)cc2)OCc2cc(C#N)ccc21 (centres unmarked) [citalopram]
Tmax [2, 3]: 4 h
V (apparent volume of distribution) [2, 3]: 840 L
t1/2 [2, 3]: 35 h

CNCCC(Oc1ccc(C(F)(F)F)cc1)c1ccccc1 (centres unmarked) [fluoxetine]
anxiety in the elevated plus maze compared to Control mice [1]: more anxious
less time in the open arms compared to Control mice ([1]; acute fluoxetine 20 mg/kg vs saline): 72%
time spent in the open arm of the elevated plus maze [1]: 4.0 ± 4.5 s
trough concentration at steady-state ([2]; Prozac Full Prescribing Information): 72 to 258 ng/mL
half-life (t1/2) ([2]; single 40-mg dose of Prozac): 48 h
peak drug concentration (Cmax) ([2]; single 40-mg dose of Prozac): 35 ng/mL

COCCCC/C(=N\OCCN)c1ccc(C(F)(F)F)cc1 [fluvoxamine]
Cmax ([2]; after a single 50 mg dose): 30 ng/mL
Tmax ([2]; after a single 50 mg dose): 6 h
t1/2 ([2]; after a single 50 mg dose): 19 h

Fc1ccc([C@@H]2CCNC[C@H]2COc2ccc3c(c2)OCO3)cc1 [paroxetine]
Cmax ([2]; after a single 30 mg dose): 17.6 ng/mL
Tmax ([2]; after a single 30 mg dose): 6.3 h
t1/2 ([2]; after a single 30 mg dose): 16 h

CCOc1ccccc1OC(c1ccccc1)C1CNCCO1 (centres unmarked) [reboxetine]
time spent in the open arm of the elevated plus maze [1]: 10.6 ± 10.8 s

CN[C@H]1CC[C@@H](c2ccc(Cl)c(Cl)c2)c2ccccc21 [sertraline]
Tmax [2, 3]: 6.5 h
V (apparent volume of distribution) [2, 3]: 1400 L
t1/2 [2, 3]: 26 h

COc1ccc(C(CN(C)C)C2(O)CCCCC2)cc1 (centres unmarked) [venlafaxine]
Tmax [2, 3]: 8 h
V (apparent volume of distribution) [2, 3]: 426 L
t1/2 [2, 3]: 16.9 h
